The values that follow come from patent US6083981A, “Sulfonamide substituted aspartic acid interleukin-1β converting enzyme inhibitors” (Warner-Lambert Company, priority 1999, dated 2000).

Data set [1] has as its target T1, Ich-2 (Caspase-4) (Homo sapiens, UniProt P49662).
T1 sequence (P49662 81-270 limits assumed): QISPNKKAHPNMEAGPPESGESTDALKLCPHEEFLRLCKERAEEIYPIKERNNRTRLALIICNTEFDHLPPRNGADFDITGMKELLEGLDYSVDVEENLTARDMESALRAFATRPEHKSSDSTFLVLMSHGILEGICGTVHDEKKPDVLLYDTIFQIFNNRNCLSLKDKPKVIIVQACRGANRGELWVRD
T1 sequence (P49662 290-377 limits assumed): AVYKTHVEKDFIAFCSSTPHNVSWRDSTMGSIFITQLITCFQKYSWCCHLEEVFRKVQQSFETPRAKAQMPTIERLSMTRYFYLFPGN
Nature of the data set: Ich-2 (Caspase-4) Colorimetric Dose-Response (IC50) Assay. In kind it is biochemical. To be noted: 64 nM enzyme, 60 μM Ac-Leu-Glu-Val-Asp-pNA. As for the experimental part: (§1) ICE enzyme is diluted to approximately 24 nM in HGE buffer (100 mM Hepes pH 7.5, 0.5 mM EDTA, 20% glycerol, 0.1% Bovine Serum Albumin (BSA), and activated by adding dithiothreitol (DTT) to a final concentration of 5 mM. The activated enzyme is then aliquoted into wells containing inhibitor or vehicle, and the plate is preincubated for 60 minutes at ambient temperature. Substrate (Ac--Tyr--Val--Ala--Asp--pNA) is added to each well to a final concentration of 50 μM, and plates are placed in the microtitre plate-reader thermostated to 25° C. Beginning 5 minutes after addition of substrate, absorbance (405 nm) of wells is monitored for 1 hour, and activity is calculated as the mean rate of change in absorbance during this interval.
Inhibition of Ich-2 enzyme is assayed as described above for ICE, except that enzyme is used at 64 nM, and 60 μM of the Ich-2-specific substrate Ac--Leu--Glu--Val--Asp--pNA is used instead of the ICE substrate Ac--Tyr--Val--Ala--Asp--pNA.

Data set [2] is described as follows: PBMC viability (MTT), compound toxicity. The class given is cell-based. The following applies: human, MTT viability, additional four hours, concentration which kills 50% of the cells, read-out: PBMC TC50. From the text: (§2) Further evidence that compounds of Formula I, II, and III are inhibitors of ICE is provided by their ability to inhibit IL-1β production in human peripheral blood mononuclear cells (PBMCs) as described herein. PBMCs are isolated from heparinized blood by centrifugation over a ficoll cushion, then washed three times with phosphate-buffered saline. PBMCs are suspended in a medium containing RPMI 1640 with glutamine, penicillin, streptomycin, and 2% human AB serum, then plated at 10^6 cells per well in 96 well flat bottom plates. PBMCs are stimulated overnight with 10 ng/mL of lipopolysaccharide (LPS, E. Coli strain 0111:B4; Calbiochem) in the presence or absence of a compound of Formula I. Medium is harvested and the level of mature IL-1β was determined using an ELISA kit from R & D Systems. Compound inhibition is assessed by determining the concentration of agent which reduces IL-1β levels by 50%. Cells were cultured for an additional four hours in the presence of 3-(4,5-dimethylthiazol-2-yl)-2,5-diphenyltetrazolium bromide (MTT) to determine viability. Compound toxicity can, therefore, be assessed by determining the concentration of agent which kills 50% of the cells (IC50).

In data set [3] the target is T2, ICE (Homo sapiens, UniProt P29466).
T2 sequence (P29466 120-297 limits assumed): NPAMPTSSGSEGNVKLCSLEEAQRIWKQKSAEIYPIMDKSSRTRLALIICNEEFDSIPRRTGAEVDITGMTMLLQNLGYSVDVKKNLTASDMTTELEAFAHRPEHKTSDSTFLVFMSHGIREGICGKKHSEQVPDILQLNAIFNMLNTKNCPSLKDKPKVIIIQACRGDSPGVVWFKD
T2 sequence (P29466 317-404 limits assumed): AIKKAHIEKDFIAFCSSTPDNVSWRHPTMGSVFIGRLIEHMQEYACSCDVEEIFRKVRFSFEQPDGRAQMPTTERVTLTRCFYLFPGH
In words: ICE inhibition, fluorometric Ki (Ac-Tyr-Val-Ala-Asp-AMC substrate). In kind it is biochemical. To be noted: 0.24 nM ICE, 15 μM Ac-Tyr-Val-Ala-Asp-AMC, reversible competitive model. The method, then: Substrate hydrolysis is monitored for 300 seconds by observing the fluorescence of released AMC using excitation at 380 nm and emission at 460 nm. Mean rates of substrate hydrolysis are evaluated by linear-regression analysis of the fluorescence vs time traces.

Data set [4] deals with T2, ICE. Nature of the data set: ICE Colorimetric Dose-Response (IC50) Assay. In kind it is biochemical. The following applies: 24 nM ICE, 60 min preincubation, 50 μM Ac-Tyr-Val-Ala-Asp-pNA, pH 7.5, 25° C. As for the experimental part:
Aliquots of each dilution are transferred to a microtitre plate in triplicate.
as §1

The subject of data set [5] is IL-1β production in human peripheral blood mononuclear cells (PBMCs). Nature of the data set: PBMC Cellular Assay, inhibition of LPS-stimulated IL-1β production. In kind it is cell-based. To be noted: PBMC; mature IL-1β by ELISA, 10 ng/mL LPS overnight, 2% human AB serum.
Description: as §2
Background: In an ELISA, binding on a coated surface is turned into a signal by an enzyme label.

What is called IC50 is the concentration at which inhibition is half-maximal. The low end stands for inhibition by little substance, the high end for a need for much substance. A word on the Ki: it is a measure of affinity in units of concentration, obtained from inhibition or displacement. Higher therefore signals lower affinity. Regarding `O=CC(CC(=O)O)NS(=O)(=O)c1ccccc1OC1CCCCC1` (centres unmarked) [Example 14, 3-(2-Cyclohexyloxy-Benzenesulfonylamino)-4-Oxo-Butyric Acid], the IC50 in data set [1] is 35 µM; in data set [4], 20 µM; in data set [5], 90 µM. Also, in data set [2], the CC50 is over 100 µM. This compound gave an inhibitory constant (Ki) in data set [3] of 2.3 µM.
Turning to `O=CC(CC(=O)O)NS(=O)(=O)c1ccccc1Oc1ccc2ccccc2c1Cl` (centres unmarked) [Example 15, 3-[2-(1-Chloro-Naphthalen-2-Yloxy)-Benzenesulfonylamino]-4-Oxo-Butyric Acid], the figures for the IC50 in data set [1], in data set [4] and in data set [5] were 22 µM, 5.1 µM and 50 µM, respectively. Moreover, in data set [2], the CC50 was over 100 µM. In addition, the Ki in data set [3] was found to be 1 µM.
With `O=CC(CC(=O)O)NS(=O)(=O)c1ccccc1Oc1ccc2c(c1)CCCC2` (centres unmarked) [Example 16, 4-Oxo-3-[2-(5,6,7,8-Tetrahydro-Naphthalen-2-Yloxy)-Benzenesulfonylamino]-Butyric Acid], the IC50 in data set [1] worked out at 42 µM; in data set [4], 5.8 µM; in data set [5], 65 µM. In addition, the CC50 in data set [2] is over 100 µM. The same compound displayed an inhibition constant (Ki) in data set [3] of 1.3 µM.
The corresponding values for `O=CC(CC(=O)O)NS(=O)(=O)c1ccccc1OCCc1ccccc1` (centres unmarked) [Example 17, 4-Oxo-3-(2-Phenethyloxy-Benzenesulfonylamino)-Butyric Acid] are 63 µM, 9.2 µM, 55 µM, over 100 µM and 0.9 µM.
The corresponding values for `CCc1ccccc1Oc1ccccc1S(=O)(=O)NC(C=O)CC(=O)O` (centres unmarked) [Example 18, 3-[2-(2-Ethyl-Phenoxy)-Benzenesulfonylamino]-4-Oxo-Butyric Acid] are 87 µM, 14 µM, 80 µM, over 100 µM and 2 µM.
The corresponding values for `CCC(C)c1ccc(Oc2ccccc2S(=O)(=O)NC(C=O)CC(=O)O)cc1` (centres unmarked) [Example 19, 3-[2-(4-Sec-Butyl-Phenoxy)-Benzenesulfonylamino]-4-Oxo-Butyric Acid] are 4 µM, 2.2 µM, 23 µM, over 100 µM and 0.5 µM.
For the compound `O=CC(CC(=O)O)NS(=O)(=O)c1ccccc1Oc1ccc(-c2ccccc2)cc1` (centres unmarked) [Example 20, 3-[2-(Biphenyl-4-Yloxy)-Benzenesulfonylamino]-4-Oxo-Butyric Acid], the IC50 came out at 17 µM in data set [1], 4.4 µM in data set [4] and 40 µM in data set [5]. Further, the CC50 in data set [2] is over 100 µM. In addition, the Ki in data set [3] was 0.3 µM.
For `CCCCC(C)c1ccc(Oc2ccccc2S(=O)(=O)NC(C=O)CC(=O)O)cc1` (centres unmarked) [Example 21, 3-{2-[4-(1-Methyl-Pentyl)-Phenoxy]-Benzenesulfonylamino}-4-Oxo-Butyric Acid], the values for the IC50 in data set [1], in data set [4] and in data set [5] were 31 µM, 6.1 µM and 33 µM, respectively. For the same compound, the CC50 in data set [2] is 70 µM. Further, affinity in data set [3] was put at a Ki of 0.6 µM.
As to `O=CC(CC(=O)O)NS(=O)(=O)c1ccccc1OCc1ccccc1` (centres unmarked) [Example 23, 3-(2-Benzyloxy-Benzenesulfonylamino)-4-Oxo-Butyric Acid], the IC50 in data set [1] is 97 µM; in data set [4], 11 µM; in data set [5], 60 µM. Further, the CC50 in data set [2] is over 100 µM. In data set [3], this compound yielded a Ki of 0.8 µM.
The corresponding values for `Cc1cccc(Oc2ccccc2S(=O)(=O)NC(C=O)CC(=O)O)c1C` (centres unmarked) [Example 24, 3-[2-(2,3-Dimethyl-Phenoxy)-Benzenesulfonylamino]-4-Oxo-Butyric Acid] are 122 µM, 13 µM, 73 µM, over 100 µM and 1 µM.
As for `CCC(C)c1ccc(Oc2ccccc2S(=O)(=O)NC(C=O)CC(=O)O)cc1C` (centres unmarked) [Example 28, 3-[2-(4-Sec-Butyl-3-Methyl-Phenoxy)-Benzenesulfonylamino]-4-Oxo-Butyric Acid], the IC50 in data set [1] came out at 4.6 µM; in data set [4], 1 µM; in data set [5], 18 µM. In data set [2], the CC50 is over 100 µM. Besides, in data set [3], the affinity, expressed as Ki, was 0.1 µM.
With `CCC(CC)COc1ccccc1S(=O)(=O)NC(C=O)CC(=O)O` (centres unmarked) [Example 29], the IC50 in data set [1] is 215 µM; in data set [4] it was 8.6 µM; in data set [5], 75 µM. For the same compound, the CC50 in data set [2] is over 100 µM. The compound further came in with a Ki in data set [3] of 0.3 µM.
The corresponding values for `O=CC(CC(=O)O)NS(=O)(=O)c1ccccc1OCCc1cccc2ccccc12` (centres unmarked) [Example 31] are 2.3 µM, 0.4 µM, 8 µM, over 100 µM and 0.062 µM.
The corresponding values for `Cc1cccc(-c2ccccc2S(=O)(=O)NC(C=O)CC(=O)O)c1` (centres unmarked) [Example 35, 3-(3'-Methyl-Biphenyl-2-Sulfonylamino)-4-Oxo-Butyric Acid] are 341 µM, 37 µM, over 100 µM, over 100 µM and 31 µM.
As for `O=CC(CC(=O)O)NS(=O)(=O)c1ccccc1Oc1ccc2ccccc2c1` (centres unmarked) [Example 36, 3-[2-(Naphthalen-2-Yloxy)-Benzenesulfonylamino]-4-Oxo-Butyric Acid], the IC50 stood at 28 µM in data set [1], 3.5 µM in data set [4] and 50 µM in data set [5]. Moreover, the CC50 in data set [2] is over 100 µM. For the same compound, the affinity in data set [3], expressed as Ki, was 0.13 µM.
The corresponding values for `Cc1cccc(S(=O)(=O)NC(C=O)CC(=O)O)c1-c1ccccc1` (centres unmarked) [Example 37, 3-(6-Methyl-Biphenyl-2-Sulfonylamino)-4-Oxo-Butyric Acid] are 151 µM, 34 µM, over 100 µM, over 100 µM and 1.9 µM.
In the case of `Cc1cccc(S(=O)(=O)NC(C=O)CC(=O)O)c1Oc1ccccc1` (centres unmarked) [Example 38, 3-(3-Methyl-2-Phenoxy-Benzenesulfonylamino)-4-Oxo-Butyric Acid], the IC50 in data set [1] was found to be 76 µM; in data set [4], 11.2 µM; in data set [5] it was 85 µM. In data set [2], the CC50 was over 100 µM. For the same compound, the Ki in data set [3] was 0.67 µM.
As to `O=CC(CC(=O)O)NS(=O)(=O)c1ccccc1Sc1ccccc1` (centres unmarked) [Example 39, 4-Oxo-3-[2-Phenylthio-Benzenesulfonylamino]-Butyric Acid], the IC50 in data set [1] was 25 µM; in data set [4], 21 µM; in data set [5], over 100 µM. In addition, in data set [2], the CC50 was over 100 µM. In data set [3], this compound came in with a Ki of 1.1 µM.
Take `O=CC(CC(=O)O)NS(=O)(=O)c1ccccc1Nc1ccccc1` (centres unmarked) [Example 40, 4-Oxo-3-[2-N-Phenyl-Benzenesulfonylamino]-Butyric Acid]: the IC50 is 370 µM in data set [1], 44 µM in data set [4] and 95 µM in data set [5]. Moreover, the CC50 in data set [2] was over 100 µM. In addition, the Ki in data set [3] is 10 µM.
